Converted amounts (≈) assume the structure as drawn.

For the data set the following is noted: buffer; pH 7.4; 200.0 µM.
On to `NC(=O)COC(=O)c1ccc2c(c1)C(=O)N(Cc1ccco1)C2=O`, for which the kinetic solubility is > 49.2 µg/mL.
For `O=S1(=O)CC2SC(=S)N(Cc3ccccc3)C2C1` (configuration not stated), the kinetic solubility amounted to 1.8 µg/mL (≈ 6.01 µM).
Under `C[C@H](N)c1nnc(SCC(N)=O)o1.Cl` stands > 35.8 µg/mL; under `O=S(=O)(Nc1ccc(-c2cnco2)cc1)c1ccccc1`, 43.6 µg/mL (≈ 145 µM); under `CN(Cc1ccccc1F)C(=O)c1ccccc1Sc1ccccc1C#N`, 17 µg/mL (≈ 45.2 µM).
With `COc1ccc(C(=O)NCc2c(C)oc(C)c2C(=O)O)cc1` the figure was > 45.5 µg/mL; with `O=C(Nc1ccccc1)C1COc2ccccc2O1` (configuration not stated), 30.1 µg/mL (≈ 118 µM).
On to `COC(=O)c1ccc(NC(=O)C[n+]2ccccc2)cc1.[Cl-]`, for which the solubility (kinetic) was > 46 µg/mL.
With `Cc1csc(NC(=O)[C@@H]2CCCN2C(=O)c2cccs2)n1` the figure was 44.2 µg/mL (≈ 138 µM); with `O=C(Nc1ccccc1)c1ccc(=O)n(Cc2cccc(Cl)c2)c1`, 22.1 µg/mL (≈ 65.2 µM).
Under `C=C(C)c1cccc(C(C)(C)NC(=O)Nc2ccc(OC)nc2)c1` stands 14 µg/mL (≈ 43 µM); under `CC(NC(=O)c1cccs1)c1ccc(Br)cc1` (configuration not stated), 3.8 µg/mL (≈ 12.2 µM); under `CCN(c1ccccc1)S(=O)(=O)c1ccc(C(=O)Nc2ccccc2OC)cc1`, 3.7 µg/mL (≈ 9.01 µM).
Under `COc1cccc(/C=N/NC(=O)c2ccc3nc[nH]c3c2)c1` stands > 44.1 µg/mL; under `COC(=O)[C@H](C)NC(=O)NCc1ccccc1`, > 35.4 µg/mL; under `Clc1ccc(NCc2cccnc2)c(Cl)c1`, 29.1 µg/mL (≈ 115 µM).
On to `O=C(c1ncc[nH]1)c1ccccc1Cl`, for which the solubility (kinetic) was > 31 µg/mL.
Under `Cc1cccc(Nc2nc(-c3ccc(F)cc3)cs2)n1` stands < 0.2 µg/mL.
With `O=C(NCCc1ccccc1)c1ccc(-c2ccc(F)cc2)o1` the figure was 7.1 µg/mL (≈ 23 µM); with `COc1cccc(N=C2CC(C)(C)CC(=O)/C2=C(/O)c2ccccc2)c1`, 0.9 µg/mL (≈ 2.58 µM).
Under `Cc1c(-c2ccc(Br)cc2)[n+](=O)c2c(n1[O-])CCCCC2` stands > 52.4 µg/mL; under `c1ccc2c(c1)OCC(CNCC1COc3ccccc3O1)O2` (configuration not stated), > 47 µg/mL; under `CC1(C)Cc2c(sc(NC(=O)/C=C/C(=O)O)c2C#N)CO1`, 41.4 µg/mL (≈ 135 µM).
Compound `Cc1ccc(NC(=O)CN(C)C(=O)/C=C/c2ccc3c(c2)OCO3)cc1` showed a solubility (kinetic) of 6.8 µg/mL (≈ 19.3 µM).
For `Cc1ccc(C(=O)NCCCn2ccnc2)cc1C`, the kinetic solubility is > 38.6 µg/mL.
With `CCOn1c(=O)c(=O)n(OC)c2ccccc21` the figure was > 35.4 µg/mL; with `CCN(CC)CCN(C(=O)/C=C/c1cccs1)c1nc2ccc(F)cc2s1.Cl`, < 0.3 µg/mL.
With `CC(NC(=O)C1CC1)c1ccc(-c2ccccc2)cc1` (configuration not stated) the figure was 1.5 µg/mL (≈ 5.65 µM).
With `CC1=C(C)CC(C(=O)NC2CCCC2)C(C(=O)O)C1` (configuration not stated) the figure was > 39.8 µg/mL; with `O=C(O)CC(NC(=O)Cc1ccccc1)c1ccccc1` (configuration not stated), 27.4 µg/mL (≈ 96.7 µM); with `COc1ccc(Nc2nc(-c3ccccc3O)nc3ccccc23)cc1`, < 0.2 µg/mL.
On to `O=C(Nc1nccs1)c1c(O)c2c([nH]c1=O)CCCC2`, for which the solubility (kinetic) worked out at 0.9 µg/mL (≈ 3.09 µM).
In turn, `CC1CC(C)(C)NC(=S)N1CCC(=O)N1CCc2ccccc21` (configuration not stated) gave a kinetic solubility of 14.6 µg/mL (≈ 44 µM).
As for `O=C(CCl)N(CCCNC(=O)C(F)(F)F)c1ccc([N+](=O)[O-])cc1`, the solubility (kinetic) is > 55.2 µg/mL.
Under `O=C(O)c1c(NC(=O)N(CCO)Cc2ccccc2)sc2c1CCCC2` stands 18.3 µg/mL (≈ 48.9 µM).
Under `COc1ccc(N2C(=O)CCC2=O)c(OC)c1` stands 33.8 µg/mL (≈ 144 µM); under `CN(C(=O)CCl)C1CCCc2ccccc21` (configuration not stated), 32.1 µg/mL (≈ 135 µM).
In turn, `O=C(COC(=O)COc1ccc(Br)cc1)NCc1ccc2c(c1)OCO2` yielded a solubility (kinetic) of 8.4 µg/mL (≈ 19.9 µM).
With `Cc1ccc(F)cc1NC(=O)CCc1c(C)[nH]c(=O)c(C#N)c1C` the figure was > 49.1 µg/mL.
For the compound `COC(=O)c1c(C)[nH]c(C)c1-c1ccc([N+](=O)[O-])cc1`, the solubility (kinetic) was 36.3 µg/mL (≈ 132 µM).
Under `CC1(C)Cc2nc3sc(C(N)=O)c(N)c3cc2CO1` stands > 41.6 µg/mL.
Under `COc1ccccc1N1CCN(C(=O)/C=C/c2cccc([N+](=O)[O-])c2)CC1` stands 3.6 µg/mL (≈ 9.8 µM); under `Cc1csc(NC(=O)c2cccc([N+](=O)[O-])c2C(=O)O)n1`, > 46.1 µg/mL.
Regarding `O=C(COc1ccccc1Cl)NCCCNC(=O)c1ccco1`, the kinetic solubility is > 50.5 µg/mL.
`O=C(CCc1c[nH]c2ccccc12)N1CCCCCCC1` displayed a solubility (kinetic) of 17.9 µg/mL (≈ 62.9 µM).
With `Cc1cc(C)cc(NC(=O)COC(=O)c2ccc3c(c2)OCCO3)c1` the figure was 2.3 µg/mL (≈ 6.74 µM); with `C=CCN1C(=O)C(C)NC1=S` (configuration not stated), > 25.5 µg/mL.
Turning to `COc1cc(C(=O)N2CCCc3ccccc32)c([N+](=O)[O-])cc1OC`, the kinetic solubility is > 51.4 µg/mL.
With `CC(NS(=O)(=O)c1cc(C(F)(F)F)ccc1Cl)C(=O)N(C)C1CCN(C)CC1` (configuration not stated) the figure was > 66.3 µg/mL; with `C/C(=N/NC(=O)c1ccncc1)c1ccccc1`, > 35.9 µg/mL.
With `Cc1nc(C(N)=O)c(N)n1CCc1ccccc1` the figure was 35.7 µg/mL (≈ 146 µM); with `O=C(CN1C(=O)NC2(CCCC2)C1=O)Nc1cc(S(=O)(=O)N2CCCCC2)ccc1Cl`, 65.8 µg/mL (≈ 140 µM).
With `COCCN1CCn2c(nc3cc(NS(C)(=O)=O)ccc32)C1` the figure was > 48.7 µg/mL; with `COc1ccccc1NC(=O)NCCc1ccccc1`, > 40.5 µg/mL; with `CC(C)(C)P(=O)(N1CCOCC1)N1CCOCC1`, > 41.4 µg/mL.
With `O=C(O)c1nc(NCCc2ccccc2)ncc1Cl`, the solubility (kinetic) is > 41.7 µg/mL.
Turning to `O=C(COC(=O)c1ccc(O)cc1O)NC1CCCCCC1`, the kinetic solubility is > 46.1 µg/mL.
With `O=C(c1ccc(F)cc1F)N1CCCc2ccccc21` the figure was > 41 µg/mL.
With `CCN(C(=O)c1ccc2c(c1)OCO2)C1CCS(=O)(=O)C1` (configuration not stated) the figure was > 46.7 µg/mL; with `COc1ccc(NC(=O)/C(=C/c2cccs2)NC(=O)c2ccco2)cc1`, 5 µg/mL (≈ 13.6 µM); with `COc1ccc(CCC(=O)NC2CCC(C)CC2)cc1` (configuration not stated), 22.2 µg/mL (≈ 80.6 µM).
Under `COc1ccc(NC(=O)CC(C)CC(=O)NCc2ccccc2)c(OC)c1` (configuration not stated) stands 5 µg/mL (≈ 13.5 µM).
As for `CC1CC(Nc2ccccc2)c2ccccc2N1C(=O)c1ccncc1` (configuration not stated), the kinetic solubility stood at 25.9 µg/mL (≈ 75.4 µM).
As to `COc1ccc(OC)c(NC(=O)COC(=O)CCCN=C2NS(=O)(=O)c3ccccc32)c1`, the kinetic solubility stood at 6.4 µg/mL (≈ 13.9 µM).
With `CCN1CCn2c3c(c4cccc(C)c42)CCCC31.Cl` (configuration not stated) the figure was 33.6 µg/mL; with `COc1cc(C=O)ccc1OCC(=O)Nc1ccc2c(c1)OCO2`, 7.6 µg/mL (≈ 23.1 µM); with `Cn1ccnc1C(=O)c1ccccc1Cl`, > 33.1 µg/mL.
Under `NC(=S)Nc1ccc(Cl)cc1Cl` stands 32.9 µg/mL (≈ 149 µM); under `O=C(c1ccncc1)N1CCN(S(=O)(=O)c2ccc(OC(F)(F)F)cc2)CC1`, 36.6 µg/mL (≈ 88.1 µM).
Under `O=C(COc1ccccc1Cl)Nc1ccc2c(c1)C(=O)NC2=O` stands < 0.4 µg/mL; under `CCn1cc(C(=O)NCCc2ccc(Cl)cc2)c(=O)c2ccc(C)nc21`, 5.1 µg/mL (≈ 13.8 µM); under `CCCS(=O)(=O)N1CCCC(C(=O)Oc2ccc(C)c(C)c2)C1` (configuration not stated), < 0.7 µg/mL.
In the case of `CCO/C=C1/C(=O)N(c2ccc(OC)cc2)C(=O)c2ccccc21`, the kinetic solubility was > 48.5 µg/mL.
With `COc1ccc(NC(=O)C2C(c3ccccc3)C2(Cl)Cl)cc1` (configuration not stated), the solubility (kinetic) was < 0.7 µg/mL.
With `O=C(Nc1cccc(Cl)c1)C1CC1c1ccccc1` (configuration not stated) the figure was 3.3 µg/mL (≈ 12.1 µM); with `Cc1ccc(NCC(=O)N/N=C/c2ccncc2)cc1`, > 40.2 µg/mL.
With `CCOc1ccccc1NC(=O)/C(C#N)=C/c1cccnc1` the figure was 18.8 µg/mL (≈ 64.1 µM); with `O=c1oc2ccc([N+](=O)[O-])cc2c(N2CCOCC2)c1[N+](=O)[O-]`, > 48.2 µg/mL; with `O=S(=O)(c1ccc(Cl)nc1)N1CCOCC1`, > 39.4 µg/mL.
Under `COc1cccc(OC)c1C(=O)Nc1ccncc1` stands 19 µg/mL (≈ 73.6 µM); under `N#Cc1c(-c2ccc(Cl)cc2)c2c([nH]c1=O)-c1ccccc1OC2`, 7.6 µg/mL (≈ 22.7 µM).
For the compound `Cc1[nH]c2ccc(C(=O)N3CCN(C)CC3)cc2c1C`, the kinetic solubility was > 40.7 µg/mL.
Under `COc1ccc(NC(=O)CN2C(=O)NC(C)(c3ccc4c(c3)OCCO4)C2=O)cc1S(N)(=O)=O` (configuration not stated) stands > 73.6 µg/mL; under `CC12CC3CC(C)(C1)CC(C(O)CN1CCOCC1)(C3)C2.Cl` (configuration not stated), > 49.5 µg/mL; under `COc1cccc(N2CCN(CC(=O)NCc3ccccc3)CC2)c1`, 50.3 µg/mL (≈ 148 µM).
With `Cc1nc(SCC(=O)Nc2ccc3[nH]c(=O)[nH]c3c2)nc(C)c1C` the figure was 15 µg/mL (≈ 43.7 µM); with `CCOC(=O)c1cnc(-c2ccc(C(F)(F)F)cn2)[nH]c1=O`, 46.8 µg/mL (≈ 149 µM); with `O=C(O)c1cccc(NC(=O)c2ccccc2NC(=O)c2cccc([N+](=O)[O-])c2)c1`, 48.3 µg/mL (≈ 119 µM).
With `CCCCCCC(Cl)(Cn1ccnc1)c1ccccc1.O=[N+]([O-])O` (configuration not stated) the figure was 35.3 µg/mL; with `Cc1nc(C)c(N)c(=O)[nH]1.Cl`, > 26.3 µg/mL.
On to `CCOC(=O)c1ccc(NC(=S)N2CCN(CCO)CC2)cc1`, for which the solubility (kinetic) is > 50.6 µg/mL.
With `CCn1c2ccccc2c2cc(C#N)c(N)nc21` the figure was 0.7 µg/mL (≈ 2.96 µM).
Under `Cc1cc(C)c(-c2cc(C)nc3ncnn23)c(C)c1` stands > 37.8 µg/mL.
As for `O=C(NCCSCc1ccco1)c1ccc(=O)[nH]c1`, the solubility (kinetic) came out at 38.2 µg/mL (≈ 137 µM).
Under `COCCSc1ccccc1C(=O)N1CCc2ccccc2C1` stands > 49.1 µg/mL.
With `C=Cc1ccc(Cn2c(=O)n(C)c(=O)c3sccc32)cc1` the figure was 1 µg/mL (≈ 3.35 µM); with `Cc1ccc(N=C2NC(=O)CS2)cc1C`, 32.7 µg/mL (≈ 148 µM); with `CC(=O)c1cccc(-n2c(CCC(=O)O)ccc2-c2ccc(C)cc2)c1`, > 52.1 µg/mL.
Under `CN(C)c1cccc(N(C)C)c1CNC(=O)C(C)(C)C` stands 39.7 µg/mL (≈ 143 µM).
The compound `COC(=O)c1cc(OC)c(OC)cc1NC(=S)N1CCCC1` gave a kinetic solubility of 6.3 µg/mL (≈ 19.4 µM).
On to `COc1cc(/C=C2/C(=O)ON=C2C)cc(Cl)c1O`, for which the kinetic solubility is > 40.2 µg/mL.
`CCn1cc(C(c2ccccc2)C(C(C)=O)[N+](=O)[O-])c2ccccc21` (configuration not stated) displayed a solubility (kinetic) of 4.8 µg/mL (≈ 14.3 µM).

The values are drawn from PubChem BioAssay AID1996.
